Laboratory results reported in patent US20200231562A1, “NOVEL MACROLIDE ANTIBIOTICS” (HELMHOLTZ-ZENTRUM FÜR INFEKTIONSFORSCHUNG GMBH, priority 2014, published 2020).
≈ marks a conversion by molar mass, not a printed value. Like-named read-outs stand apart in the source and are kept apart here.

Columns and labels:
Assay type in all cases: cell-based
[1] = tested on: S. aureus N315 mutant Mt50DscA.8; test: Susceptibility (MIC) of Disciformycin A-resistant mutant; conditions: Staphylococcus aureus
[2] = tested on: S. aureus N315 mutant Mt50DscA.1; test: as above; conditions: Staphylococcus aureus
[3] = tested on: S. aureus N315 wildtype (WT); test: Susceptibility (MIC) of S. aureus N315 wildtype; conditions: Staphylococcus aureus
[4] = tested on: S. aureus N315 mutant Mt50DscA.10; test: Susceptibility (MIC) of Disciformycin A-resistant mutant; conditions: Staphylococcus aureus
[5] = tested on: S. aureus N315 mutant Mt50DscA.11; test: as above; conditions: Staphylococcus aureus
[6] = tested on: HCT-116 colon carcinoma cells (ACC-581); test: Cytotoxicity (MTT) assay, antiproliferative activity; conditions: Homo sapiens, 120 h, HCT-116, 5 d incubation
Description: (§1) Half maximal inhibitory concentrations (IC50) in μg/ml of disciformycin A (1) and disciformycin B (2) for inhibiting the proliferative activity of human HCT-116 colon carcinoma cells, mouse fibroblast cells L929, and Chinese hamster ovary CHO-K1 cells were determined. Cells were seeded at 6×10^3 cells per well of 96-well plates (Corning CellBind®) in complete medium (180 μl) and directly treated with disciformycin dissolved in DMSO in serial dilution. The compound was tested in duplicate, as well as the internal solvent control. After 5 d incubation, 5 mg/ml MTT in PBS (20 μL) was added per well and it was further incubated for 2 h at 37° C. The medium was then discarded and cells were washed with PBS (100 μl) before adding 2-propanol/10N HCl (250:1, v/v; 100 μl) in order to dissolve formazan granules. The absorbance at 570 nm was measured using a microplate reader (EL808, Bio-Tek Instruments Inc.). The amount of formazan, i.e. relative absorption, is thereby proportional to the number of actively proliferating cells.

[7] = tested on: Mouse fibroblast cells L929 (ACC-2); test: as above; conditions: 120 h, L929, 5 d incubation
Description: as §1

[8] = tested on: Chinese hamster ovary CHO-K1 cells (ACC-110); test: as above; conditions: Cricetulus griseus, 120 h, CHO-K1, 5 d incubation
Description: as §1

[9] = tested on: S. aureus N315 mutant Mt50DscA.2; test: Susceptibility (MIC) of Disciformycin A-resistant mutant; conditions: Staphylococcus aureus
[10] = tested on: S. aureus N315 mutant Mt50DscA.6; test: as above; conditions: Staphylococcus aureus
[11] = tested on: S. aureus Newman in PMA-differentiated human THP-1 cell line (macrophages); test: Intra-macrophage activity
Text: The PMA-differentiated human THP-1 cell line (macrophages) was used as cellular host for infection with S. aureus Newman at an MOI (multiplicity of infection) of 10. […] Intracellular bacteria were recovered and serial dilutions were streaked out on CASO-Agar for cfu counting. The reference drug rifampicin reduced the number of intracellular bacteria by ca. 4 logs (at 8×MIC).

[12] = tested on: S. aureus N315 mutant Mt50DscA.3; test: Susceptibility (MIC) of Disciformycin A-resistant mutant; conditions: Staphylococcus aureus
[13] = tested on: Micrococcus luteus DSM 20030; test: MIC by microbroth dilution; conditions: 16 h, 30° C., n.i. = no inhibition up to 67 μg/ml
Description: (§2) Bacterial strains. Bacterial wildtype strains used in susceptibility assays were either part of HZI's strain collection or purchased from the German Collection of Microorgansims and Cell Cultures (Deutsche Sammlung von Mikroorganismen und Zellkulturen, DSMZ).
(§3) Minimum inhibitory concentration (MIC) was determined by microbroth dilution. In brief, overnight cultures of bacteria (EBS medium) were diluted to OD600 0.01. Disciformycin A (1) or B (2) dissolved in DMSO was added directly to the cultures in 96-well plates (Sarstedt, flat bottom) in duplicate and the compound was tested in serial dilution. […] After 16 h incubation at 900 rpm and 30° C. on a microplate shaker (Titramax, Heidolph) absorbance at 600 nm was measured using a microplate reader (POLARstar Omega, BMG Labtech). MIC values were determined by sigmoidal curve fitting.

[14] = tested on: Mycobacterium sp. DSM 43270; test: MIC by microbroth dilution; conditions: 16 h, 30° C., n.i. = no inhibition up to 67 μg/ml
Description: as §2, §3

[15] = tested on: Chromobacterium violaceum DSM 30191; test: MIC by microbroth dilution; conditions: 16 h, 30° C., n.i. = no inhibition up to 67 μg/ml
Description: as §2, §3

[16] = tested on: Staphylococcus aureus Newman; test: MIC by microbroth dilution; conditions: 16 h, 30° C., n.i. = no inhibition up to 67 μg/ml
Description: as §2, §3

[17] = tested on: Pseudomonas aeruginosa DSM 50071; test: MIC by microbroth dilution; conditions: 16 h, 30° C., n.i. = no inhibition up to 67 μg/ml
Description: as §2, §3

[18] = tested on: Escherichia coli DSM 1116; test: MIC by microbroth dilution; conditions: 16 h, 30° C., n.i. = no inhibition up to 67 μg/ml
Description: as §2, §3

[19] = tested on: Paenibacillus polymyxa DSM 36; test: MIC by microbroth dilution; conditions: Paenibacillus polymyxa, DSM36, 16 h, 30° C., n.i. = no inhibition up to 67 μg/ml, read-out: MIC
Description: as §2, §3

[20] = tested on: Staphylococcus aureus DSM 346; test: MIC by microbroth dilution; conditions: Staphylococcus aureus, DSM346, 16 h, 30° C., n.i. = no inhibition up to 67 μg/ml, read-out: MIC
Description: as §2, §3

[21] = tested on: Staphylococcus camosus DSM 20501; test: MIC by microbroth dilution; conditions: 30° C., n.i. = no inhibition up to 67 μg/ml
Description: as §2, §3

[22] = tested on: Staphylococcus aureus Mu50 (MRSA/VRSA) ATCC 700699; test: MIC by microbroth dilution; conditions: 16 h, 30° C., n.i. = no inhibition up to 67 μg/ml
Description: as §2, §3

[23] = tested on: Staphylococcus aureus N315 (MRSA); test: MIC by microbroth dilution; conditions: 16 h, 30° C., n.i. = no inhibition up to 67 μg/ml
Description: as §2, §3

[24] = tested on: Staphylococcus aureus (MRSA) DSM-11822; test: MIC by microbroth dilution; conditions: microbroth dilution, 16 h, 30° C., n.i. = no inhibition up to 67 μg/ml
Description: as §2, §3

[25] = tested on: Bacillus subtilis DSM 10; test: MIC by microbroth dilution; conditions: Bacillus subtilis, DSM10, 16 h, 30° C., n.i. = no inhibition up to 67 μg/ml, read-out: MIC
Description: as §2, §3

[26] = tested on: Mycobacterium diemhoferi DSM 43524; test: MIC by microbroth dilution; conditions: Mycobacterium, DSM43524, 16 h, 30° C., n.i. = no inhibition up to 67 μg/ml, read-out: MIC
Description: as §2, §3

[27] = tested on: Nocardioides simplex DSM 20130; test: MIC by microbroth dilution; conditions: Pimelobacter simplex, DSM20130, 16 h, 30° C., n.i. = no inhibition up to 67 μg/ml, read-out: MIC
Description: as §2, §3

[28] = tested on: S. aureus N315 mutant Mt50DscA.4; test: Susceptibility (MIC) of Disciformycin A-resistant mutant; conditions: Staphylococcus aureus
[29] = tested on: S. aureus N315 mutant Mt50DscA.5; test: as above; conditions: Staphylococcus aureus
[30] = tested on: S. aureus N315 Mt50DscA.9; test: as above; conditions: Staphylococcus aureus
[31] = tested on: Bacillus subtilis ATCC 6633; test: Agar diffusion assay; conditions: ATCC6633, 50 μL of 0.5 mg in 1 mL methanol per 7 mm hole, n.a. = no activity observed, read-out: diameter of inhibition zone
Description: (§4) Antimicrobial activities of the gulmirecins were determined in a primary screen against Bacillus subtilis ATCC 6633, Staphylococcus aureus SG511, Staphylococcus auricularis DSM 20609, Mycobacterium vaccae IMET 10670, Pseudomonas aeruginosa K799/61, Escherichia coli SG458, Sporobolomyces salmonicolor SBUG 549, Candida albicans ATCC14053 and Penicillium notatum JP 36. To this end, holes with 7 mm diameter were aseptically punched in the respective agar medium. Subsequently, the agar plates were inoculated with the test organisms. 0.5 mg of every test compound was dissolved in 1 mL of methanol, and 50 μL of this solution was transferred to a single hole. Ciprofloxacin and amphotericin B served as positive controls. After evaporation of the solvent, the agar plates were incubated depending on the growth conditions of the test organisms. […] The test results are shown in Table 6 below, wherein the given values represent the diameters of the respective inhibition zone in the agar diffusion assay.

[32] = tested on: Escherichia coli SG458; test: Agar diffusion assay; conditions: 50 μL of 0.5 mg in 1 mL methanol per 7 mm hole, n.a. = no activity observed, read-out: diameter of inhibition zone
Description: as §4

[33] = tested on: Staphylococcus auricularis DSM 20609; test: Agar diffusion assay; conditions: DSM20609, 50 μL of 0.5 mg in 1 mL methanol per 7 mm hole, n.a. = no activity observed, read-out: diameter of inhibition zone
Description: as §4

[34] = tested on: Staphylococcus aureus SG511; test: Agar diffusion assay; conditions: 50 μL of 0.5 mg in 1 mL methanol per 7 mm hole, n.a. = no activity observed, read-out: diameter of inhibition zone
Description: as §4

[35] = tested on: Pseudomonas aeruginosa K799/61; test: Agar diffusion assay; conditions: 50 μL of 0.5 mg in 1 mL methanol per 7 mm hole, n.a. = no activity observed, read-out: diameter of inhibition zone
Description: as §4

[36] = tested on: Mycobacterium vaccae IMET 10670; test: Agar diffusion assay; conditions: Mycolicibacterium vaccae, IMET10670; 50 μL of 0.5 mg in 1 mL methanol per 7 mm hole; n.a. = no activity observed; read-out: diameter of inhibition zone
Description: as §4

[37] = tested on: methicillin-resistant S. aureus (MRSA); test: Bouillon dilution assay (MIC90); conditions: Staphylococcus aureus, tryptic soy broth, 37° C., 16 h
Description: Before incubation, 3 was added in decreasing concentrations ([…] to 12.5 μg/ml). After incubation, the OD600 was measured. The experiment was run in triplicate. Ciprofloxacin was used as a positive control.

[38] = tested on: Candida albicans ATCC14053; test: Agar diffusion assay; conditions: 50 μL of 0.5 mg in 1 mL methanol per 7 mm hole; n.a. = no activity observed
Description: as §4

[39] = tested on: Penicillium notatum JP 36; test: Agar diffusion assay; conditions: 50 μL of 0.5 mg in 1 mL methanol per 7 mm hole; n.a. = no activity observed
Description: as §4

[40] = tested on: Sporobolomyces salmonicolor SBUG 549; test: Agar diffusion assay; conditions: 50 μL of 0.5 mg in 1 mL methanol per 7 mm hole; n.a. = no activity observed
Description: as §4

[41] = Staphylococcus aureus, read-out: MIC

C/C=C(/C)[C@H]1C/C=C(\C)[C@@H](O[C@H]2O[C@H](CO)[C@@H](O)[C@@H]2O)[C@H](OC(=O)CC(C)C)C(=O)/C=C/[C@H](C)C(=O)O1 [Compound 2, disciformycin B]
MIC [1]: > 64 mg/L | MIC [2]: > 64 mg/L | MIC [3]: 1 mg/L (≈ 1.91 µM) | MIC [4]: > 64 mg/L | MIC [5]: 32 mg/L (≈ 61 µM) | IC50 [6]: > 10 mg/L | IC50 [7]: > 10 mg/L | IC50 [8]: > 10 mg/L | MIC [9]: > 64 mg/L | MIC [10]: > 64 mg/L | reduction of the number of intracellular bacteria ([11]; 18 h, MOI 10, cfu counting, tested at 1×, 4× and 8×MIC): 3 logs | cytotoxicity towards THP-1 host cells ([11]; 18 h treatment of infected macrophages): without causing any apparent cytotoxicity | MIC [12]: > 64 mg/L | MIC [13]: n.i. | MIC [14]: n.i. | MIC [15]: n.i. | MIC [16]: 1.2 mg/L (≈ 2.29 µM) | MIC ([16]; Staphylococcus aureus, NEWMAN, read-out: MIC): 1.2 mg/L (≈ 2.29 µM) | MIC [17]: n.i. | MIC [18]: n.i. | MIC [19]: 16.6 mg/L (≈ 31.6 µM) | MIC [20]: 3.3 mg/L (≈ 6.29 µM) | MIC ([21]; 16 h): 2.4 mg/L (≈ 4.57 µM) | MIC ([21]; Staphylococcus, DSM20501, 16 h, read-out: MIC): 2.4 mg/L (≈ 4.57 µM) | MIC [22]: 0.6 mg/L (≈ 1.14 µM) | MIC [22, 41]: 0.6 mg/L (≈ 1.14 µM) | MIC [23]: 1.2 mg/L (≈ 2.29 µM) | MIC ([23]; Staphylococcus aureus, MRSA, read-out: MIC): 1.2 mg/L (≈ 2.29 µM) | MIC [24, 41]: 0.6 mg/L (≈ 1.14 µM) | MIC [24]: 0.6 mg/L (≈ 1.14 µM) | MIC [25]: 0.83 mg/L (≈ 1.58 µM) | MIC [26]: 33.3 mg/L (≈ 63.5 µM) | MIC [27]: 16.6 mg/L (≈ 31.6 µM) | MIC [28]: > 64 mg/L | MIC [29]: 16 mg/L (≈ 30.5 µM) | MIC [30]: > 64 mg/L

O=C(O)c1cn(C2CC2)c2cc(N3CCNCC3)c(F)cc2c1=O [Ciprofloxacin, reference compound]
zone of inhibition at 25 µg/hole [31]: 30 mm | zone of inhibition at 25 µg/hole [32]: 34 mm | zone of inhibition at 25 µg/hole [33]: 20 mm | zone of inhibition at 25 µg/hole [34]: 19 mm | zone of inhibition at 25 µg/hole [35]: 38 mm | zone of inhibition at 25 µg/hole [36]: 24 mm | MIC90 [37]: 75.4 µM (≈ 25 µg/mL)

C[C@@H]1[C@H](O)[C@@H](C)/C=C/C=C/C=C/C=C/C=C/C=C/C=C/[C@H](O[C@@H]2O[C@H](C)[C@@H](O)[C@H](N)[C@@H]2O)C[C@@H]2O[C@](O)(C[C@@H](O)C[C@@H](O)[C@H](O)CC[C@@H](O)C[C@@H](O)CC(=O)O[C@H]1C)C[C@H](O)[C@H]2C(=O)O [Amphotericin B]
diameter of inhibition zone [38]: 22 mm | diameter of inhibition zone [39]: 18 mm | diameter of inhibition zone [40]: 19 mm
